{"source": "patent US20190083398A1", "about": "(ZheJiang Chinese Medical University, priority 2016, published 2019)", "assay": "Solubility (descriptive)", "type": "physicochemical", "details": "0.9% NaCl release medium", "excerpt": "The samples at each sampling point are filtered through a 0.45 μm microporous film and injected for analysis."}
{"compound": "CC(C)[C@@H](C)/C=C/[C@@H](C)[C@H]1CC[C@H]2C3=CC=C4C[C@@H](O)CC[C@]4(C)[C@H]3CC[C@]12C", "note": "[ergosterol]", "values": [{"measurement": "solubility in the release medium", "value": "very low"}]}
